Measurements from ChEMBL document CHEMBL3639166, “Heteroaryloxyheterocyclyl compounds as PDE10 inhibitors” (2013).

target: T1, cAMP and cAMP-inhibited cGMP 3',5'-cyclic phosphodiesterase 10A (Rattus norvegicus, UniProt Q9QYJ6); assay: Enzyme Inhibition Assay: Enzyme activity: An IMAP TR-FRET assay was used to analyze the enzyme activity (Molecular Devices Corp., Sunnyvale, Calif).
T1 sequence (Q9QYJ6 whole entry): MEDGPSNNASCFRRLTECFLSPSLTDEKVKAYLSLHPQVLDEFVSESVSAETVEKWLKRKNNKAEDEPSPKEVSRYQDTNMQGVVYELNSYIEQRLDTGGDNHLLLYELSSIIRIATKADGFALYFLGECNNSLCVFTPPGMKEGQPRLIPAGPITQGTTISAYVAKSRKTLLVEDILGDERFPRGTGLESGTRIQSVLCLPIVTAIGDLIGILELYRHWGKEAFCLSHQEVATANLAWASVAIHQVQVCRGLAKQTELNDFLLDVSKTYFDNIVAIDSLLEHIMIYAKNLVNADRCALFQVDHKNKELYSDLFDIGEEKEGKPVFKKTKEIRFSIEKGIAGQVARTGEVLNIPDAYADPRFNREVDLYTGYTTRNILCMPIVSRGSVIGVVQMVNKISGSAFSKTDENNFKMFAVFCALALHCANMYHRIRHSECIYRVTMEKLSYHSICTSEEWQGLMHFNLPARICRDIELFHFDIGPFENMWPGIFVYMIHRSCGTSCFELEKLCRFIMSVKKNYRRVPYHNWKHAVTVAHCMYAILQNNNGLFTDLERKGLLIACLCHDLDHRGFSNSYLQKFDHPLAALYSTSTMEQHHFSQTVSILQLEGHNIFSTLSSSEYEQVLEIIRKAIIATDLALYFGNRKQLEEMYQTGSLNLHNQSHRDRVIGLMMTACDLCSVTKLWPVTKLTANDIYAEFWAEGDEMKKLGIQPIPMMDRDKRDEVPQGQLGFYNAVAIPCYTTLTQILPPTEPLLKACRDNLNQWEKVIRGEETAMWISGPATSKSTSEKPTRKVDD

| SMILES | IC50 |
| --- | --- |
| CC(=O)N1CCC(c2nccnc2OC2CN(c3nc4ccccc4[nH]3)C2)CC1 | 690 nM |
| OCC1CCN(c2ncc(N3CCCCC3)c(OC3CN(c4ccc5ccccc5n4)C3)n2)CC1 | 18.4 nM |
| Cc1cccc2ccc(N3CCC(Oc4nccnc4C4CCOCC4)CC3)nc12 | 7840 nM |
| CC(O)C1CCN(c2nccnc2OC2CN(c3ccc4ccccc4n3)C2)CC1 (stereo not given) | 46.9 nM |
| c1ccc2nc(N3CC(Oc4nccnc4C4CCOCC4)C3)ccc2c1 | 331 nM |
| c1ccc2nc(N3CC(Oc4nccnc4N4CCCCCC4)C3)ccc2c1 | 334 nM |
| CC(=O)N1CCC(c2nccnc2OC2CCN(c3cc(Cl)ccn3)CC2)CC1 | 96 nM |
| c1cnc(O[C@@H]2CCN(c3nc4ccccc4[nH]3)C2)c(C2CCOCC2)c1 | 3590 nM |
| CC(=O)N1CCC(c2cc(F)cnc2OC2CN(c3ccc4ccccc4n3)C2)CC1 | 64.8 nM |
| Cc1cnc(OC2CN(c3ccc4ccccc4n3)C2)c(N2CCC(CO)CC2)c1 | 1.52 nM |
| Cc1cc(-c2cnc(N3CCC(CO)CC3)nc2OC2CN(c3ccc4ccccc4n3)C2)ccn1 | 0.3 nM |
| CC(=O)N1CCCC(c2cccnc2OC2CN(C(=O)c3nc4ccccc4[nH]3)C2)C1 (stereo not given) | 6.47 nM |
| O=C(c1ccncn1)N1CC(Oc2ncccc2C2=CCOCC2)C1 | 990 nM |
| Cc1cc(-c2nccnc2O[C@@H]2CCN(c3ccc4ccccc4n3)C2)ccn1 | 255 nM |
| c1ccc2cc(N3CCC(Oc4nccnc4C4CCOCC4)CC3)ncc2c1 | 235 nM |
| CC(=O)N1CCC(c2cccnc2OC2CN(c3ccc4ccccc4n3)C2)CC1 | 68.8 nM |
| COC(=O)C1CCN(c2ncc(Br)c(OC3CN(c4ccc5ccccc5n4)C3)n2)CC1 | 1340 nM |
| O=C(c1nc2ccccc2[nH]1)N1CC(Oc2nc3ccccc3nc2C2CCOCC2)C1 | 786 nM |
| COC1CCN(c2nccnc2OC2CCN(c3ccc4ccccc4n3)CC2)CC1 | 59.6 nM |
| O=C(c1nc2ccccc2[nH]1)N1CC(Oc2cnccn2)C1 | 12300 nM |
| Cc1ccnc(N2CCC(Oc3nccnc3C3CCOCC3)CC2)c1 | 1330 nM |
| Cc1ccncc1-c1nccnc1OC1CN(c2ccc3ccccc3n2)C1 | 251 nM |
| c1ccc2nc(N3CC(Oc4nccnc4N4CCC(N5CCCC5)CC4)C3)ccc2c1 | 571 nM |
| OCC1CCN(c2nccnc2NC2CN(c3ccc4ccccc4n3)C2)CC1 | 20 nM |

| SMILES | IC50 |
| --- | --- |
| O=C(c1nccc2ccccc12)N1CCC(Oc2ncccc2N2CCOCC2)CC1 | 11100 nM |
| c1ccc(-c2nccnc2OC2CN(c3ccc4ccccc4n3)C2)nc1 | 1220 nM |
| CC(=O)c1ccc(N2CCC(Oc3ncccc3C3CCOCC3)CC2)nc1 | 384 nM |
| CC1CN(c2nccnc2OC2CN(c3ccc4ccccc4n3)C2)CCO1 (stereo not given) | 62.8 nM |
| CC(=O)N1CCC=C(c2nccnc2OC2CN(C(=O)c3nc4ccccc4[nH]3)C2)C1 | 121 nM |
| OCc1ccc(-c2nccc(OC3CN(c4ccc5ccccc5n4)C3)n2)cc1 | 8.45 nM |
| Nc1ncc2cc(-c3nccnc3OC3CN(c4ccc5ccccc5n4)C3)ccc2n1 | 3.3 nM |
| Cc1ncccc1-c1nccnc1OC1CN(c2ccc3ccccc3n2)C1 | 135 nM |
| Cc1cc(N2CCC(Oc3ncccc3C3CCOCC3)CC2)nc2ccccc12 | 101 nM |
| CC(C)(O)C1CCN(c2nccnc2OC2CN(c3ccc4ccccc4n3)C2)CC1 | 83.6 nM |
| CC(=O)N1CCC(c2nccnc2OC2CCN(c3cccc(C)n3)CC2)CC1 | 1050 nM |
| Cc1cccc(N2CCC(Oc3ncccc3C3CCOCC3)CC2)n1 | 1670 nM |
| CC(=O)N1CCC(c2nccnc2OC2CCN(c3ncccc3C)CC2)CC1 | 3010 nM |
| OC1CCCN(c2nccnc2OC2CN(c3ccc4ccccc4n3)C2)CC1 (stereo not given) | 29.5 nM |
| c1ccc(N2CCC(Oc3nccnc3C3CCOCC3)CC2)nc1 | 2390 nM |
| O=C(c1nccc2ccccc12)N1CCC(Oc2nccnc2C2CCOCC2)CC1 | 7320 nM |
| OCC1CCCN(c2ncc(Br)c(OC3CN(c4ccc5ccccc5n4)C3)n2)C1 (stereo not given) | 60 nM |
| c1ccc2nc(N3CC(Oc4nccnc4-c4cccc5ncccc45)C3)ccc2c1 | 87 nM |
| Fc1cnc(OC2CN(c3ccc4ccccc4n3)C2)c(N2CCC(F)(F)CC2)c1 | 144 nM |
| c1ccc(Cc2ccc3oc(-c4nccnc4OC4CN(c5ccc6ccccc6n5)C4)cc3c2)cc1 | 363 nM |
| O=C1CCC(c2nccnc2OC2CN(C(=O)c3nc4ccccc4[nH]3)C2)CC1 | 114 nM |
| c1ccc2c(N3CC[C@H](Oc4nccnc4C4CCOCC4)C3)nccc2c1 | 819 nM |
| CC(O)C1CCN(c2ccnnc2OC2CN(c3ccc4ccccc4n3)C2)CC1 (stereo not given) | 76.7 nM |
| c1cnc(OC2CCN(c3nccc4ccccc34)CC2)c(C2CCOCC2)c1 | 1810 nM |

| SMILES | IC50 |
| --- | --- |
| c1cnc(O[C@H]2CCN(c3nccc4ccccc34)C2)c(C2CCOCC2)c1 | 730 nM |
| O[C@@H]1CCN(c2nccnc2OC2CCN(c3ccc4ccccc4n3)CC2)C1 | 356 nM |
| OCC1CCN(c2ncc(C3=CCOCC3)c(OC3CN(c4ccc5ccccc5n4)C3)n2)CC1 | 1.1 nM |
| O=C(c1nc2ccccc2[nH]1)N1CC(Oc2ncccc2C2=CCOCC2)C1 | 0.864 nM |
| c1cnc(O[C@H]2CCN(c3nc4ccccc4[nH]3)C2)c(C2CCOCC2)c1 | 2470 nM |
| c1cnc(O[C@H]2CCN(c3cc4ccccc4cn3)C2)c(C2CCOCC2)c1 | 2970 nM |
| O=C(c1nc2ccccc2[nH]1)N1CC[C@H](Oc2ncccc2C2CCOCC2)C1 | 409 nM |
| CC(C)(C)OC(=O)N1CCC=C(c2nccnc2OC2CN(C(=O)c3nc4ccccc4[nH]3)C2)C1 | 227 nM |
| c1ccc2nc(N3CC[C@@H](Oc4nccnc4C4CCOCC4)C3)ccc2c1 | 109 nM |
| Cc1ccc(N2CCC(Oc3ncccc3C3CCOCC3)CC2)nc1 | 262 nM |
| CC(=O)N1CCC(c2nccnc2OC2CCN(c3cc(C)ccn3)CC2)CC1 | 997 nM |
| OC1CCN(c2nccnc2OC2CN(c3ccc4ccccc4n3)C2)CC1 | 26.1 nM |
| O=C(c1cc(Cl)ccn1)N1CCC(Oc2ncccc2C2CCOCC2)CC1 | 8890 nM |
| O=C(c1nc2ccccc2[nH]1)N1CC(Oc2nccnc2C2=CCOCC2)C1 | 222 nM |
| OCC1CCN(c2ncc(Br)c(OC3CN(c4cnc5ccccc5n4)C3)n2)CC1 | 24.2 nM |
| CNC(=O)c1ccc(-c2nccnc2OC2CN(c3ccc4ccccc4n3)C2)cc1 | 15 nM |
| c1ccc2nc(N3CCC(Oc4nccnc4N4CCCC4)CC3)ccc2c1 | 286 nM |
| CC(=O)N1CCC(c2cccnc2OC2CCN(c3ccccn3)CC2)CC1 | 1080 nM |
| CC(=O)N1CCC(c2nccnc2OC2CCN(c3ccc(Cl)cn3)CC2)CC1 | 821 nM |
| O=C(c1ccc2ccccc2n1)N1CCC(Oc2ncccc2C2CCOCC2)CC1 | 809 nM |
| c1cnc(OC2CN(c3ccc4ccccc4n3)C2)c(C2CCOCC2)c1 | 1800 nM |
| CN(C)C(=O)c1cccc(-c2nccnc2OC2CN(c3ccc4ccccc4n3)C2)c1 | 22.8 nM |
| COc1cccc(-c2nccnc2OC2CN(c3ccc4ccccc4n3)C2)c1 | 19 nM |
| c1ccc2nc(N3CCC(Oc4nccnc4N4CCC4)CC3)ccc2c1 | 273 nM |

| SMILES | IC50 |
| --- | --- |
| CN1CCN(c2nccnc2OC2CN(c3ccc4ccccc4n3)C2)CC1=O | 33.9 nM |
| CC(=O)N1CCC(c2cccnc2OC2CCN(c3ncccc3Cl)CC2)CC1 | 3580 nM |
| COc1ncccc1-c1nccnc1OC1CN(c2ncc3ccccc3n2)C1 | 178 nM |
| C1=CCN(c2nccnc2OC2CN(c3ccc4ccccc4n3)C2)CC1 | 314 nM |
| c1ccc2cc(N3CC(Oc4nccnc4C4CCOCC4)C3)ncc2c1 | 4960 nM |
| c1ccc2nc(N3CC(Oc4nccnc4-c4ccc(OCC5CC5)nc4)C3)ccc2c1 | 50.2 nM |
| CC(=O)N1CC=C(c2nccnc2OC2CCN(C(=O)c3nc4ccccc4[nH]3)CC2)CC1 | 71.8 nM |
| CC(=O)N1CCCC(c2cccnc2OC2CN(C(=O)CC(C)(C)C)C2)C1 (stereo not given) | 41800 nM |
| O=C(c1nc2ccccc2[nH]1)N1CC(Oc2ncccc2[C@H]2CC[C@@H](O)CC2)C1 | 21.1 nM |
| OC1CN(c2nccnc2OC2CCN(c3ccc4ccccc4n3)CC2)C1 | 1220 nM |
| CC(=O)N1CCC(c2cccnc2OC2CCN(c3cccc(C)n3)CC2)CC1 | 1180 nM |
| CC(=O)N1CC=C(c2nccnc2OC2CN(C(=O)OCc3ccccc3)C2)CC1 | 582 nM |
| N#CC1CCN(c2cccnc2OC2CN(c3ccc4ccccc4n3)C2)CC1 | 68.9 nM |
| CC(C)(C)OC(=O)N1C=C(c2nccnc2OC2CN(C(=O)c3nc4ccccc4[nH]3)C2)CCC1 | 36.5 nM |
| COc1cnccc1-c1cccnc1OC1CN(C(=O)OCc2ccccc2)C1 | 7640 nM |
| CC(=O)N1CCC(c2cccnc2OC2CCN(c3cccc(Cl)n3)CC2)CC1 | 558 nM |
| c1ccc2nc(N3CC(Oc4nccnc4N4CCCOCC4)C3)ccc2c1 | 44.6 nM |
| FC1(F)CCCN(c2nccnc2OC2CN(c3ccc4ccccc4n3)C2)C1 | 92.1 nM |
| c1ccc2nc(N3CCC(Oc4nccnc4C4CCOCC4)CC3)ccc2c1 | 69.3 nM |
| OCC1CCN(c2ccc(Br)c(OC3CN(c4ccc5ccccc5n4)C3)n2)CC1 | 0.229 nM |
| CC(=O)N1CCC(c2cc(C)cnc2OC2CN(c3ccc4ccccc4n3)C2)CC1 | 67.8 nM |
| COc1cccc(-c2nc3ccccc3nc2OC2CN(c3ccc4ccccc4n3)C2)c1 | 6.68 nM |
| O=Cc1ccc(N2CCC(Oc3ncccc3C3CCOCC3)CC2)nc1 | 1480 nM |
